{
  "source": "patent US20240417410A1",
  "about": "“TRICYCLIC COMPOUNDS FOR THE TREATMENT OF CANCER” (Hoffmann-La Roche Inc., priority 2023, published 2024)",
  "key": {"WT KRAS-BRAF complex": {"target": "WT KRAS-BRAF complex (Homo sapiens (Human), UniProt P01116+P62937)", "sequence (P01116-2 whole entry, looked up)": "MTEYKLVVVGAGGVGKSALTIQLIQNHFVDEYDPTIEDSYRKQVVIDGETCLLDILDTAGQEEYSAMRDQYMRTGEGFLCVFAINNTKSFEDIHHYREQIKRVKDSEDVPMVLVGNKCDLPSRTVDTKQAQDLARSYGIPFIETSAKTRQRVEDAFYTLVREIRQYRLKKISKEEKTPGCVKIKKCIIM", "sequence (P62937 whole entry, looked up)": "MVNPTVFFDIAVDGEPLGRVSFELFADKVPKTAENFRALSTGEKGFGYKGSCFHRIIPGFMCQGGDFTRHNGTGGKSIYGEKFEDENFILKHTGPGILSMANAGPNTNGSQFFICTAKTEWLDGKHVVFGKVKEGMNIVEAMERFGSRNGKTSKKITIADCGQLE", "test": "WT KRAS-BRAF with CYPA interaction assay (TR-FRET)", "type": "biochemical", "settings": "WT KRAS", "protocol": "(§1) In this example, TR-FRET was used to measure the compound or compound-CYPA dependent disruption of the KRAS G12V-BRAF complex to assess inhibition efficacy. The IC50 ratio between WT KRAS/HRAS/NRAS and KRAS G12V mutant was calculated as selective index, which indicated tolerability and safety profile. Disruption of WT KRAS/HRAS/NRAS-BRAF complex by compounds was detected respectively. In assay buffer containing 25 mM HEPES (PH-7.4,4-(2-hydroxyethyl)-1-piperazineethanesulfonic acid, Thermo, 15630080), 0.002% Tween20, 0.1% BSA, 100 mM NaCl, 5 mM MgCl2, 10 μM GMPPNP (Guanosine 5′-[β,γ-imido]triphosphate trisodium salt hydrate, Sigma, G0635), tagless CYPA and GMPPNP loaded 6His-RAS proteins, and GST-BRAF^RBD were mixed in a well of a 384-well assay plate at final concentrations of 50 nM, 6.25 nM and 1 nM, respectively. Compound was present in plate wells as a 16-point 3-fold dilution series starting at a final concentration of 10 μM and incubated for 3 hours. A mixture of MAb Anti-6His-XL665 (Cisbio, 61HISXLB) and Mab anti-GST-TB cryptate (Cisbio, 61GSTTLB) was then added at a final concentration of 6.67 nM and 0.21 nM, respectively, and the plate was incubated for an additional 1.5 hours. TR-FRET signal was read on a PHERstar FSX microplate reader (Ex320 nm, Em 665/615 nm). Compounds that facilitate disruption of the RAS-BRAF complex were identified as those eliciting a decrease in the TR-FRET ratio relative to DMSO control wells."}, "[1]": {"test": "Single dose pharmacokinetics (PK) study in female BALB/c mice", "type": "in vivo, mouse", "protocol": "The purpose of this study was to determine the pharmacokinetics of selected compounds following single intravenous bolus or oral gavage administration in female BALB/c mice. Briefly, two groups of female BALB/c mice (available from Shanghai Lingchang Biotechnology Co., Ltd) (N=3/group) were treated with a single dose of compound intravenously at 3 mg/kg (IV) or orally at 30 mg/kg (PO). Blood samples were collected at 5 min (only for IV), […], 30 min, 1 h, 2 h, 4 h, 7 h and 24 h post-dose. Blood samples were placed on ice until centrifugation to obtain plasma samples. The concentration of compound in plasma samples was determined using LC-MS/MS method. The pharmacokinetic parameters were calculated by non-compartmental analysis."}, "CYPA": {"target": "CYPA (Homo sapiens (Human), UniProt P62937)", "sequence (P62937 whole entry)": "as the sequence (P62937 whole entry, looked up) above", "test": "CYPA binding analysis by surface plasmon resonance (SPR)", "excerpt": "The compounds of this invention created a tri-complex involving the active RAS protein and CYPA, necessitating the initial formation of a binary complex through the compound's interaction with CYPA. The stability of the drug-target complex, as indicated by its equilibrium dissociation constant (KD), is thought to influence the length of target engagement, which in turn could lead to a prolonged effect in the washout experiments. Therefore, the objective of this study is to evaluate the binding kinetics of the compounds with CYPA to determine the stability of the CYPA-compound binary complex and to evaluate whether this stability correlates with the sustained inhibition of the target.\nAll SPR experiments were conducted on a Biacore 8K+ instrument (Cytiva). Recombinant biotinylated CYPA protein with a C-terminal AVI tag was purified and immobilized on flow cell 2 of SA chip (Cytiva, BR100531), with the flow cell 1 as the blank reference. The running buffer was HBS-P+ Buffer (Cytiva, BR100827, 0.01 M HEPES pH 7.4,0.15 M NaCl, 0.05% v/v Surfactant P20), and the flow rate was 10 μL/min. The immobilization level was achieved to about 1800 response units (RU). Compounds were 3-fold serially diluted to 1.5-3333 nM using HBS-P+Buffer with a final DMSO concentration of 1.5%, and then loaded to flow through the chip surface at a rate of 30 μL/min with HBS-P+Buffer containing 1.5% DMSO as the running buffer. Experiments were performed at 25° C. The contact time and dissociation time were set to 60 s and 200 s, respectively. After binding and dissociation of each sample, the chip was regenerated using 1 M NaCl with a short contact time of 19 s at a rate of 60 μL/min. The sensorgrams were analyzed using Biacore Insight Evaluation software with 1:1 kinetics binding model to determine the association rate constant (kon), dissociation rate constant (koff) and equilibrium dissociation constant (KD)."}, "WT NRAS-BRAF complex": {"target": "WT NRAS-BRAF complex (Homo sapiens (Human), UniProt P01111+P62937)", "sequence (P01111 whole entry, looked up)": "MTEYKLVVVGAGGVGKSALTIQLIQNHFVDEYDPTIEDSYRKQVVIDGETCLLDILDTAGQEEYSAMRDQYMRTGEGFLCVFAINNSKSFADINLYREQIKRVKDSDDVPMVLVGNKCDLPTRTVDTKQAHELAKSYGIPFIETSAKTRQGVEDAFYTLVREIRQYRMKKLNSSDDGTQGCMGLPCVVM", "sequence (P62937 whole entry, looked up)": "as the sequence (P62937 whole entry, looked up) above", "test": "WT NRAS-BRAF with CYPA interaction assay (TR-FRET)", "type": "biochemical", "settings": "WT NRAS", "protocol": "as §1"}, "NCI-H358 (KRAS G12C)": {"test_system": "NCI-H358 (KRAS G12C)", "test": "Washout viability assay", "type": "cell-based", "settings": "for IC50: Homo sapiens; for IC50 shift fold: washout vs no-washout", "protocol": "(§2) Cancer cell lines NCI-H358, NCI-H2122, and SW480 (purchased from ATCC) were cultured in RPMI1640 (Thermo Fisher Scientific) medium plus 10% Fetal Bovine Serum (FBS, Thermo Fisher Scientific, 2.5 μg/mL puromycin and 1% Antibiotic-Antimycotic (Thermo Fisher Scientific) and plated at a density of 2,000 cells per well in 96-well assay plates (Corning-3699) and incubated overnight. On the assay day, compounds diluted to a final DMSO concentration of 0.5% were added to the wells. Following a 4-hour incubation period, the culture medium was removed, and the cells were washed three times with RPMI1640 medium only before being cultured in the abovementioned culture medium (RPMI1640+10% FBS+1% antibiotic-antimycotic). After 72 hours, a tenth of the volume of Cell Counting Kit-8 (Dojindo-CK04) was added to each well. The absorbance was measured (OD450 minus OD650) using an EnVision plate reader after a further 2-hour incubation. The IC50 values were calculated by applying a four-parameter sigmoidal concentration-response curve fit to the data."}, "SW480 (KRAS G12V)": {"test_system": "SW480 (KRAS G12V)", "test": "Washout viability assay", "type": "cell-based", "settings": "for IC50: Homo sapiens; for IC50 shift fold: washout vs no-washout", "protocol": "as §2"}, "NCI-H2122 (KRAS G12C)": {"test_system": "NCI-H2122 (KRAS G12C)", "test": "Washout viability assay", "type": "cell-based", "settings": "for IC50: Homo sapiens; for IC50 shift fold: washout vs no-washout", "protocol": "as §2"}, "[2]": {"settings": "30 mg/kg, po, female BALB/c mice"}, "[3]": {"settings": "NCI-H358 (KRAS G12C), 4-hour treatment, three washes, 72 hours, read-out: Washout IC50"}, "[4]": {"settings": "NCI-H358, KRAS (G12C), read-out: No-washout IC50"}, "[5]": {"settings": "4-hour treatment, three washes, 72 hours, read-out: Washout IC50"}, "[6]": {"settings": "NCI-H2122 (KRAS G12C), 4-hour treatment, three washes, 72 hours, read-out: Washout IC50"}, "[7]": {"settings": "NCI-H2122, KRAS (G12C), read-out: No-washout IC50"}},
  "note": "Read-outs that look alike come from different tables or passages of the source.",
  "data": [
    {"smiles": "CO[C@@H](C)c1ncc(N2CCN(C)CC2)cc1-c1c2c3cc(cc4c3n1CCC4)-c1csc(n1)C[C@H](NC(=O)[C@H]1[C@H](C)[C@@H]1C)C(=O)N1CCC[C@H](N1)C(=O)OCC(C)(C)C2", "note": "(atropisomer, axis not shown; (M)) [Example 24, (1r,2R,3S)-N-[(7S,13S)-(20M)-20-[2-[(1S)-1-methoxyethyl]-5-(4-methylpiperazin-1-yl)-3-pyridyl]-17,17-dimethyl-8,14-dioxo-15-oxa-4-thia-9,21,30,31-tetrazahexacyclo[23.3.1.1^2,5.1^9,13.0^19,27.0^21,26]hentriaconta-1 (28),2,5 (31), 19,25 (29),26-hexaen-7-yl]-2,3-dimethyl-cyclopropanecarboxamide]", "values": [
      {"measurement": "IC50", "setting": "WT KRAS-BRAF complex", "result": 32, "unit": "nM"},
      {"measurement": "CL", "setting": "[1]; 3 mg/kg, iv, female BALB/c mice", "result": 5.3, "unit": "mL/min/kg"},
      {"measurement": "AUC0-last", "setting": "[1]; [2]", "result": 57240, "unit": "ng·h/mL"},
      {"measurement": "Cmax", "setting": "[1]; [2]", "result": 10498, "unit": "ng/mL"},
      {"measurement": "fold increase in AUC0-last compared with compound A122", "setting": "[1]; 30 mg/kg, po, mouse", "result": 6, "unit": "fold"},
      {"measurement": "fold increase in AUC0-last compared with compound A252", "setting": "[1]; 30 mg/kg, po, mouse", "result": 4, "unit": "fold"},
      {"measurement": "fold increase in Cmax compared with compound A122", "setting": "[1]; 30 mg/kg, po, mouse", "result": "~4", "unit": "fold"},
      {"measurement": "fold increase in Cmax compared with compound A252", "setting": "[1]; 30 mg/kg, po, mouse", "result": 4.3, "unit": "fold"},
      {"measurement": "fold lower KD compared to A122", "setting": "CYPA", "result": 2.3, "unit": "fold"},
      {"measurement": "fold lower koff compared to A122", "setting": "CYPA", "result": 2.9, "unit": "fold"},
      {"measurement": "Kd", "setting": "CYPA; SPR, 25° C., immobilized CYPA", "result": 13, "unit": "nM"},
      {"measurement": "koff", "setting": "CYPA; SPR, 25° C., immobilized CYPA", "result": 0.019, "unit": "s⁻¹"},
      {"measurement": "kon", "setting": "CYPA; SPR, 25° C., immobilized CYPA", "result": "1.4e+06", "unit": "M⁻¹ s⁻¹"},
      {"measurement": "IC50", "setting": "WT NRAS-BRAF complex", "result": 35, "unit": "nM"},
      {"measurement": "IC50", "setting": "NCI-H358 (KRAS G12C); [3]", "result": 5.9, "unit": "nM"},
      {"measurement": "IC50", "setting": "NCI-H358 (KRAS G12C); [4]", "result": 1, "unit": "nM"},
      {"measurement": "IC50 shift fold", "setting": "NCI-H358 (KRAS G12C); NCI-H358 (KRAS G12C)", "result": 5.6, "unit": "fold"},
      {"measurement": "IC50", "setting": "SW480 (KRAS G12V); [5]", "result": 8.4, "unit": "nM"},
      {"measurement": "IC50", "setting": "SW480 (KRAS G12V); read-out: No-washout IC50", "result": 1.3, "unit": "nM"},
      {"measurement": "IC50 shift fold", "setting": "SW480 (KRAS G12V)", "result": 6.7, "unit": "fold"},
      {"measurement": "IC50", "setting": "NCI-H2122 (KRAS G12C); [6]", "result": 9, "unit": "nM"},
      {"measurement": "IC50", "setting": "NCI-H2122 (KRAS G12C); [7]", "result": 6.7, "unit": "nM"},
      {"measurement": "IC50 shift fold", "setting": "NCI-H2122 (KRAS G12C); NCI-H2122 (KRAS G12C)", "result": 1.3, "unit": "fold"}
    ]},
    {"smiles": "CCn1c(-c2cc(N3CCN(C)CC3)cnc2[C@H](C)OC)c2c3cc(ccc31)-c1csc(n1)C[C@H](NC(=O)[C@H]1C[C@@H]1C)C(=O)N1CCC[C@H](N1)C(=O)OCC(C)(C)O2", "note": "[Example A122, reference compound]", "values": [
      {"measurement": "IC50", "setting": "WT KRAS-BRAF complex", "result": 16, "unit": "nM"},
      {"measurement": "clearance", "setting": "[1]; female, BALB/c, mouse, plasma, iv, 3 mg/kg, female BALB/c mice", "result": 33.9, "unit": "mL/min/kg"},
      {"measurement": "AUC(0-t)", "setting": "[1]; female, BALB/c, mouse, plasma, po, 30 mg/kg, female BALB/c mice", "result": 9760, "unit": "ng·h/mL"},
      {"measurement": "Cmax", "setting": "[1]; female, BALB/c, mouse, plasma, po, 30 mg/kg, po, female BALB/c mice, read-out: Cmax", "result": 2530, "unit": "ng/mL"},
      {"measurement": "koff", "setting": "CYPA; SPR, 25° C., immobilized CYPA", "result": 0.056, "unit": "s⁻¹"},
      {"measurement": "kon", "setting": "CYPA; SPR, 25° C., immobilized CYPA", "result": "1.9e+06", "unit": "M⁻¹ s⁻¹"},
      {"measurement": "IC50", "setting": "WT NRAS-BRAF complex", "result": 10, "unit": "nM"},
      {"measurement": "IC50", "setting": "NCI-H358 (KRAS G12C); [3]", "result": 32.1, "unit": "nM"},
      {"measurement": "IC50", "setting": "NCI-H358 (KRAS G12C); [4]", "result": 2, "unit": "nM"},
      {"measurement": "IC50 shift fold", "setting": "NCI-H358 (KRAS G12C); NCI-H358 (KRAS G12C)", "result": 16.2, "unit": "fold"},
      {"measurement": "IC50", "setting": "SW480 (KRAS G12V); [5]", "result": 47.3, "unit": "nM"},
      {"measurement": "IC50", "setting": "SW480 (KRAS G12V); read-out: No-washout IC50", "result": 2.4, "unit": "nM"},
      {"measurement": "IC50 shift fold", "setting": "SW480 (KRAS G12V)", "result": 19.7, "unit": "fold"},
      {"measurement": "IC50", "setting": "NCI-H2122 (KRAS G12C); [6]", "result": 29, "unit": "nM"},
      {"measurement": "IC50", "setting": "NCI-H2122 (KRAS G12C); [7]", "result": 8, "unit": "nM"},
      {"measurement": "IC50 shift fold", "setting": "NCI-H2122 (KRAS G12C); NCI-H2122 (KRAS G12C)", "result": 3.6, "unit": "fold"}
    ]}
  ]
}
